{"source": "patent US7012098B2", "about": "“Inhibitors of inducible nitric oxide synthase for chemoprevention and treatment of cancers” (Pharmacia Corporation, priority 2001, dated 2006)", "key": {"[1]": {"tested_on": "azoxymethane-induced colonic aberrant crypt foci", "conditions": "cited from earlier work; for formation of colonic aberrant crypt foci: male F344 rats"}, "Human Cartilage": {"tested_on": "Human Cartilage", "test": "Human Cartilage Explant Assay (nitrite production)", "format": "cell-based", "conditions": "inhibition of nitrite production, IL-1β-induced explants", "procedure": "Human Cartilage Explant Assay\nBone pieces are rinsed twice with Dulbecco's Phosphate Buffered Saline (GibcoBRL) and once with Dulbecco's Modified Eagles Medium (GibcoBRL) and placed into a petri dish with phenol red free Minimum Essential Medium (MEM) (GibcoBRL). Cartilage was cut into small explants of approximately 15-45 mg in weight and one or two explants per well are placed into either 96 or 48 well culture plates with 200-500 μL of culture media per well. The culture media was either a custom modification of Minimum Essential Medium(Eagle) with Earle's salts (GibcoBRL) prepared without L-Arginine, without L-Glutamine and without phenol red or a custom modification of serumless Neuman and Tytell (GibcoBRL) medium prepared without L-arginine, without insulin, without ascorbic acid, without L-glutamine and without phenol red. Both are supplemented before use with 100 μM L-Arginine (Sigma), 2 mM L-glutamine, 1X HL-1 supplement (BioWihittaker), […] ascorbic acid (Sigma) and 150 pg/ml recombinant human IL-1β (RD Systems) to induce nitric oxide synthase. Compounds are then added in 10 μL aliquots and the explants incubated at 37° C. with 5% CO2 for 18-24 hours. The day old supernatant is then discarded and replaced with fresh culture media containing recombinant human IL-1? and compound and incubated for another 20-24 hours. […] All samples are done in quadruplicate. Unstimulated controls are cultured in media in the absence of recombinant human IL-1β. IC50 values (Table I) are determined from plotting the percent inhibition of nitrite production at six different concentrations of inhibitor."}, "[2]": {"tested_on": "LPS-induced increase in plasma nitrite/nitrate levels", "test": "In Vivo Assay, endotoxin-treated rats, plasma nitrite/nitrate", "conditions": "administered orally", "procedure": "Plasma nitrite/nitrate levels can be determined 5 hours post-treatment."}, "AOM-induced colonic ACF": {"tested_on": "AOM-induced colonic ACF", "test": "Chemopreventive effects in rats with azoxymethane-induced aberrant crypt foci", "format": "in vivo, male F344 rats", "conditions": "for Foci containing 1 Crypt / Foci containing 2 Crypt / Foci containing 3 Crypt / Foci containing ≧4 Crypts / Total ACF incidence: AOM-treated male F344 rats, Mean ± SEM; for inhibition at 320 ppm: feed or water, positive control", "from_the_text": "In Vivo Assay of Chemopreventive Effects of Therapeutic Compounds in Rats with Azoxymethane-induced Aberrant Crypt Foci\n(§1) Azoxymethane (AOM) (CAS:25843-45-2) was purchased from Ash Stevens (Detroit, Mich.). iNOS and COX-2 selective inhibitors were provided by Pharmacia, (St. Louis, […].). Sulindac, a non-selective inhibitor of COX-isoforms and a known inhibitor of colon carcinogenesis, was supplied by the Chemoprevention Branch of the National Cancer Institute (Bethesda, Md.). Weanling male F344 rats were purchased from Charles River Breeding Laboratories (Kingston, N.Y.). All ingredients of the semipurified diet were obtained from Dyets Inc., (Bethlehem, Pa.) and were stored at 4° C. until the experimental diets were prepared. The rats were held in quarantine for 1 week and had access to modified AIN-76A semipurified control diet (Reddy et al., Cancer Res. 50: 2562-2568, 1990, which is herein incorporated by reference.). They were randomly distributed into various dietary groups and were transferred to an animal holding room where they were housed, three rats to a plastic cage, under controlled conditions of a 12-h light/12-h dark cycle, 50% relative humidity and 21° C. room temperature. Experimental diets were prepared by mixing chemopreventive agents with modified AIN-76A control diet.\nTo quantify aberrant crypt foci, after a minimum of 24 h in buffered formalin, the colons were cut into 2-cm segments starting at the anus; for the next 5-10 min they were placed in a Petri dish containing 0.2% methylene blue in Krebs Ringer solution. They were then placed, mucosal side up, on a microscope slide and observed through a light microscope. Aberrant crypt foci were recorded according to standard procedures that are being used routinely in our laboratory (Rao et al., Carcinogenesis 21: 617-21, 2000; Rao et al., Cancer Res. 53:4182-88, 1993, which are herein incorporated by reference.). […] The parameters used to assess the aberrant crypts were their occurrence and multiplicity. Crypt multiplicity was determined as the number of crypts in each focus and categorized as containing up to 3, or 4 or more aberrant crypts/focus."}, "NOS": {"tested_on": "NOS", "test": "Colonic mucosal NOS activity after dietary treatment", "format": "in vivo, male F344 rats", "conditions": "500 ppm in diet; AOM-treated rats, colonic mucosa; Mean ± SEM", "procedure": "In Vivo Assay of Modulation of Colonic Mucosal Activities of NOS and COX isoforms by iNOS and COX-2 Inhibitors\nNOS and iNOS activities were determined in colonic samples as prepared and described above. Conversion of L-arginine to L-citrulline was measured by a modification of an earlier described method (Rao et al, Carcinogenesis 21, supra; Ambs et al., Cancer Res. 58:334-41, 1998, which is herein incorporated by reference). The assay was carried out by adding 100 μg sample protein to 150 μl of assay buffer [50 mM HEPES, 1 mM DTT, 1 mM MgCl2, 5 mg/L pepstatin A, 0.1 mM PMSF, and 3 mg/L aprotinin, pH 7.4] containing 70 μM arginine, 250,000 dpm L-[^3H]-arginine, 2 mM NADPH, 5μM tetrahydro biopterin, 5 μM flavin adenine dinucleotide, and 0.5 mM CaCi2 to measure total NOS activity, or 1 mM EGTA (without calcium) to determine Ca+^2-independent iNOS activity. After 30 min at 37° C., the reaction was stopped with 100 μl of 1M trichloroacetic acid. Then the samples were adjusted to pH 4.6 by adding 500 μl of 20 mM HEPES and loaded on to Dowex AG 50W-X8 resin columns. L-[^3H]-citrulline was eluted and separated on TLC. Radioactivity was counted by a BioScan Radiomatic detector. Results are expressed as pmol L-[^3H]-citrulline released/mg protein/min."}, "[3]": {"test": "Body weights and toxicity on experimental diets", "format": "in vivo, male F344 rats", "from_the_text": "as §1"}, "[4]": {"conditions": "Rattus norvegicus, po, read-out: ED50"}}, "note": "Where a name gives a salt, the structure may show the parent alone. Read-outs that look alike come from different tables or passages of the source."}
{"smiles": "COc1ccc2cc(CCC(C)=O)ccc2c1", "note": "[nabumetone]", "values": [{"measurement": "formation of colonic aberrant crypt foci", "setting": "[1]", "result": "inhibit"}]}
{"smiles": "CC(=N)NC/C(F)=C\\CC[C@](C)(N)C(=O)O.Cl.Cl", "note": "[Example HH, (2S,5E)-2-amino-2-methyl-6-fluoro-7-[(1-iminoethyl)amino]-5-heptenoic acid, dihydrochloride]", "values": [{"measurement": "IC50", "setting": "Human Cartilage; Homo sapiens", "result": 0.4, "unit": "µM"}, {"measurement": "ED50", "setting": "[2]; [4]", "result": 0.4, "unit": "mg/kg"}]}
{"smiles": "Cc1ccc(-c2cc(C(F)(F)F)nn2-c2ccc(S(N)(=O)=O)cc2)cc1", "note": "[Celecoxib, celecoxib]", "values": [{"measurement": "Foci containing 1 Crypt", "setting": "AOM-induced colonic ACF; 500 ppm in diet", "result": "26.8 ± 2.1"}, {"measurement": "Foci containing 2 Crypt", "setting": "AOM-induced colonic ACF; 500 ppm in diet", "result": "27.3 ± 2.0"}, {"measurement": "Foci containing 3 Crypt", "setting": "AOM-induced colonic ACF; 500 ppm in diet", "result": "23.7 ± 2.3"}, {"measurement": "Foci containing ≧4 Crypts", "setting": "AOM-induced colonic ACF; 500 ppm in diet", "result": "23.3 ± 2.7"}, {"measurement": "Total ACF incidence", "setting": "AOM-induced colonic ACF; 500 ppm in diet", "result": "102 ± 7.5"}, {"measurement": "inhibition at 500 ppm", "setting": "AOM-induced colonic ACF; Rattus norvegicus, 500 ppm, read-out: inhibition of total ACF", "result": "5 to 20", "unit": "%"}, {"measurement": "NOS Activity, NOS", "setting": "NOS", "result": "11.3 ± 2.1 pmoles [^3H]-citrulline/mg pro"}]}
{"smiles": "N=C1CCCC[C@H](CCCC[C@H](N)C(=O)O)N1", "note": "[Example Z, (αS,2S)-α-aminohexahydro-7-imino-1H-azepine-2-hexanoic acid, trihydrate hydrochloride]", "values": [{"measurement": "IC50", "setting": "Human Cartilage; Homo sapiens", "result": "< 10", "unit": "µM"}]}
{"smiles": "N=C(N)SCCc1ccc(CCSC(=N)N)cc1", "note": "[PBIT]", "values": [{"measurement": "azoxymethane-induced colonic aberrant crypt foci development and iNOS activity", "setting": "[1]; laboratory rodents", "result": "prevented"}]}
{"smiles": "Cl.N=C1CCCC[C@@H](CCCC[C@H](N)C(=O)O)N1.O.O.O", "note": "[Example W, (αS,2R)-α-aminohexahydro-7-imino-1H-azepine-2-hexanoic acid, trihydrate hydrochloride]", "values": [{"measurement": "IC50", "setting": "Human Cartilage; Homo sapiens", "result": "> 30", "unit": "µM"}, {"measurement": "ED50", "setting": "[2]; [4]", "result": "> 10", "unit": "mg/kg"}]}
{"smiles": "Cl.N=C1CCCC[C@H](CCCC[C@@H](N)C(=O)O)N1.O.O.O", "note": "[Example V, (αR,2S)-α-aminohexahydro-7-imino-1H-azepine-2-hexanoic acid, trihydrate hydrochloride]", "values": [{"measurement": "IC50", "setting": "Human Cartilage; Homo sapiens", "result": "< 10", "unit": "µM"}, {"measurement": "ED50", "setting": "[2]; [4]", "result": "< 3", "unit": "mg/kg"}]}
{"smiles": "CS(=O)(=O)Nc1ccc([N+](=O)[O-])cc1Oc1ccccc1", "note": "[nemisulide]", "values": [{"measurement": "formation of colonic aberrant crypt foci", "setting": "[1]", "result": "inhibit"}]}
{"smiles": "COC[C@](N)(CSCCNC(C)=N)C(=O)O", "note": "[Example J, 2-[[[2-[(1-Iminoethyl)amino]ethyl]thio]methyl]-O-methyl-D-serine, dihydrochloride]", "values": [{"measurement": "IC50", "setting": "Human Cartilage", "result": 8.2, "unit": "µM"}]}
{"smiles": "CC(=N)NC/C(F)=C\\CC[C@H](N)C(=O)O", "note": "[Example A, (2S,5E)-2-amino-6-fluoro-7-[(1-iminoethyl)amino]-5-heptenoic acid, dihydrochloride]", "values": [{"measurement": "ED50", "setting": "[2]; dihydrochloride", "result": "<0.1", "unit": "mg/kg"}]}
{"smiles": "CC1=C(CC(=O)O)c2cc(F)ccc2/C1=C\\c1ccc([S+](C)[O-])cc1", "note": "(stereo not shown) [Sulindac]", "values": [{"measurement": "Foci containing 1 Crypt", "setting": "AOM-induced colonic ACF; 320 ppm in diet", "result": "23.3 ± 1.8"}, {"measurement": "Foci containing 2 Crypt", "setting": "AOM-induced colonic ACF; 320 ppm in diet", "result": "28.0 ± 1.5"}, {"measurement": "Foci containing 3 Crypt", "setting": "AOM-induced colonic ACF; 320 ppm in diet", "result": "17.3 ± 1.7"}, {"measurement": "Foci containing ≧4 Crypts", "setting": "AOM-induced colonic ACF; 320 ppm in diet", "result": "16.5 ± 0.9"}, {"measurement": "Total ACF incidence", "setting": "AOM-induced colonic ACF; 320 ppm in diet", "result": "84.9 ± 4.1"}, {"measurement": "inhibition at 320 ppm", "setting": "AOM-induced colonic ACF; Rattus norvegicus, 320 ppm in diet, read-out: inhibition of multicrypt clusters containing 4 or more aberrant crypts/focus", "result": 50, "unit": "%"}, {"measurement": "inhibition at 320 ppm", "setting": "AOM-induced colonic ACF; Rattus norvegicus, 320 ppm in diet, read-out: inhibition of total ACF/colon", "result": 40, "unit": "%"}, {"measurement": "body weights", "setting": "[3]; rats treated with vehicle or AOM, control vs experimental diets, throughout the study period", "result": "comparable"}, {"measurement": "toxicity or gross changes in the liver, kidney, intestine and lungs", "setting": "[3]; vehicle-treated rats fed the experimental diets", "result": "did not produce any toxicity or any gross changes"}]}
{"smiles": "CC(=N)NC/C=C\\CC[C@](C)(N)C(=O)O.Cl.Cl", "note": "[Example LL, (2S,5Z)-2-amino-2-methyl-7-[(1-iminoethyl)amino]-5-heptenoic acid, dihydrochloride]", "values": [{"measurement": "IC50", "setting": "Human Cartilage; Homo sapiens", "result": 0.8, "unit": "µM"}, {"measurement": "ED50", "setting": "[2]; [4]", "result": 0.3, "unit": "mg/kg"}]}
{"smiles": "N=C1CCCC[C@H](CCCC[C@H](N)C(=O)O)N1", "note": "[Example X, (αS,2S)-α-aminohexahydro-7-imino-1H-azepine-2-hexanoic acid, trihydrate hydrochloride]", "values": [{"measurement": "IC50", "setting": "Human Cartilage", "result": "< 10", "unit": "µM"}]}
